# Results published in patent publication US20220249487A1, “QUINAZOLINYL COMPOUNDS AND METHODS OF USE” (Genentech, Inc., priority 2019, published 2022).
# Structures can show the parent of a compound that is named as a salt.
# Molecular target: T1, IRE1α (Homo sapiens, UniProt O75460, D688N)
# T1 construct: containing the kinase and RNase domains (KR, AA G547-L977, D688N); made in house; host or cells: Sf9 insect cells
# Test: IRE1α TR-FRET competition binding assay (HTRF)
# Details: His-tagged IRE1α kinase dead construct (KR, AA G547-L977, D688N); Alexa fluor 647-labeled ATP competitive probe 2 nM; read-out: IRE1α (alpha) HTRF (IC50)
# Experimental: To determine the affinity of compound binding to the kinase domain of IRE1α, a time-resolved fluorescence resonance energy transfer (TR-FRET) competition assay was used.
# A His-tagged IRE1α kinase dead construct containing the kinase and RNase domains (KR, AA G547-L977, D688N) was expressed in Sf9 insect cells. The purified protein (final concentration 0.25 nM) was pre-incubated with anti-His Europium labeled antibody (Life Technologies PV5596, final concentration 2 nM) for one hour at 4° C. in TR-FRET Assay Buffer (50 mM HEPES, pH 7.5, 10 mM MgCl2, 0.083 mM Brij 35, 1 mM DTT, and 0.1% bovine gamma globulin) prior to addition to test compounds. An Alexa fluor 647-labeled probe based on an ATP competitive inhibitor was added to a final concentration of 2 nM. Reactions were carried out for one hour at room temperature in a final volume of 20 μL in 384 well white ProxiPlates (Perkin Elmer 6008289). Binding of the probe to the IRE1α protein was detected in an Envision instrument (PerkinElmer) equipped with a TRF laser option and a LANCE/Delfia Dual/Bias D400/D630 mirror (Ex 347 nm, 1st Em 665 nm, 2nd Em 615 nm).
# T1 sequence (O75460 547-977 D688N): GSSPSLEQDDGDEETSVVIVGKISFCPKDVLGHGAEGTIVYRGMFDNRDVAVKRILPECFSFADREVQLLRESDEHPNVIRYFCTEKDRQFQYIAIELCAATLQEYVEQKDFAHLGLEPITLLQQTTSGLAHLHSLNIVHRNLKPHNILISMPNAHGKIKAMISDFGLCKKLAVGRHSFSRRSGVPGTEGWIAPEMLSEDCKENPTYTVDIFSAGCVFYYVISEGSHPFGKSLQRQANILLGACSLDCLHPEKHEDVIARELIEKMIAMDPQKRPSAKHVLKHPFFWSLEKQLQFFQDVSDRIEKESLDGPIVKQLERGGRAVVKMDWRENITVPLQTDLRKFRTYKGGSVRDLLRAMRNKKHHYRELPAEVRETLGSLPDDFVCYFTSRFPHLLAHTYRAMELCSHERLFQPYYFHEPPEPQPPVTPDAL
row,Compound,IC50 [nM]
1,"O=S(=O)(Cc1ccccc1)Nc1ccc(-c2ccc3nc(N[C@H]4CCCNC4)ncc3c2F)c(F)c1F [Compound 1012, (S)—N-(2,3-Difluoro-4-(5-fluoro-2-(piperidin-3-ylamino)quinazolin-6-yl)phenyl)-1-phenylmethanesulfonamide]",15
2,"O=S(=O)(Cc1ccccc1)Nc1ccc(-c2cc3cnc(N[C@H]4CCCNC4)nc3cc2F)c(F)c1F [Compound 1015, (S)—N-(2,3-Difluoro-4-(7-fluoro-2-(piperidin-3-ylamino)quinazolin-6-yl)phenyl)-1-phenylmethanesulfonamide]",3.1
3,"O=S(=O)(Cc1ccccc1)Nc1c(F)cc(-c2ccc3nc(N[C@@H]4CNC[C@@H](F)C4)ncc3c2)cc1F [Compound 1013, N-(2,6-Difluoro-4-(2-(((3S,5S)-5-fluoropiperidin-3-yl)amino)quinazolin-6-yl)phenyl)-1-phenylmethanesulfonamide]",0.51
4,"CCc1cc(-c2ccc(NS(=O)(=O)Cc3ccccc3)cc2F)cc2cnc(N[C@@H]3CNC[C@@H](F)C3)nc12 [Compound 1016, N-(4-(8-Ethyl-2-(((3S,5S)-5-fluoropiperidin-3-yl)amino)quinazolin-6-yl)-3-fluorophenyl)-1-phenylmethanesulfonamide Formate]",0.46
5,"O=S(=O)(CCC(F)(F)F)Nc1ccc(-c2ccc3nc(N[C@H]4CCCNC4)ncc3c2)c(F)c1F [Compound 1002, (S)—N-(2,3-Difluoro-4-(2-(piperidin-3-ylamino)quinazolin-6-yl)phenyl)-3,3,3-trifluoropropane-1-sulfonamide]",7.6
6,"CCC(F)(F)CS(=O)(=O)Nc1ccc(-c2ccc3nc(N[C@H]4CCCNC4)ncc3c2)c(F)c1F [Compound 1007, (S)—N-(2,3-Difluoro-4-(2-(piperidin-3-ylamino)quinazolin-6-yl)phenyl)-2,2-difluorobutane-1-sulfonamide]",2.9
7,"CCc1cc(-c2ccc(NS(=O)(=O)CCC(F)(F)F)c(F)c2)cc2cnc(N[C@H]3CC[C@H](N(C)C)CC3)nc12 [Compound 1018, N-(4-(2-(((1,4-trans)-4-(Dimethylamino)cyclohexyl)amino)-8-ethylquinazolin-6-yl)-2-fluorophenyl)-3,3,3-trifluoropropane-1-sulfonamide]",0.25
8,"CCc1cc(-c2ccc(NS(=O)(=O)Cc3ccccc3)c(F)c2)cc2cnc(N[C@@H]3CNC[C@@H](F)C3)nc12 [Compound 1017, N-(4-(8-Ethyl-2-(((3S,5S)-5-fluoropiperidin-3-yl)amino)quinazolin-6-yl)-2-fluorophenyl)-1-phenylmethanesulfonamide]",0.18

# The next lines start with the values.
row,IC50 [nM],Compound
1,2.1,"O=S(=O)(Cc1ccccc1)Nc1cc(F)c(-c2ccc3nc(N[C@H]4CCCNC4)ncc3c2)c(F)c1F [Compound 1014, (S)-1-Phenyl-N-(2,3,5-trifluoro-4-(2-(piperidin-3-ylamino)quinazolin-6-yl)phenyl)methanesulfonamide hydrochloride]"
2,0.65,"O=S(=O)(Cc1ccccc1)Nc1c(F)cc(-c2ccc3nc(N[C@H]4CCCNC4)ncc3c2)c(F)c1F [Compound 1003, (S)-1-Phenyl-N-(2,3,6-trifluoro-4-(2-(piperidin-3-ylamino)quinazolin-6-yl)phenyl)methanesulfonamide]"
3,0.57,"O=S(=O)(Cc1ccccc1)Nc1ccc(-c2ccc3nc(N[C@H]4CCCNC4)ncc3c2)c(F)c1F [Compound 1001, (S)—N-(2,3-Difluoro-4-(2-(piperidin-3-ylamino)quinazolin-6-yl)phenyl)-1-phenylmethanesulfonamide]"
4,4.9,"Cc1cc(NS(=O)(=O)Cc2ccccc2)c(F)c(F)c1-c1ccc2nc(N[C@H]3CCCNC3)ncc2c1 [Compound 1009, (S)—N-(2,3-Difluoro-5-methyl-4-(2-(piperidin-3-ylamino)quinazolin-6-yl)phenyl)-1-phenylmethanesulfonamide]"
5,0.53,"O=S(=O)(Cc1ccccc1)Nc1c(F)cc(-c2ccc3nc(N[C@H]4CCCNC4)ncc3c2)cc1F [Compound 1011, (S)—N-(2,6-Difluoro-4-(2-(piperidin-3-ylamino)quinazolin-6-yl)phenyl)-1-phenylmethanesulfonamide]"
6,150,"O=S(=O)(Cc1ccccc1)Nc1ccc(F)c(-c2ccc3nc(N[C@H]4CCCNC4)ncc3c2)c1F [Compound 1004, (S)—N-(2,4-Difluoro-3-(2-(piperidin-3-ylamino)quinazolin-6-yl)phenyl)-1-phenylmethanesulfonamide]"
7,11,"O=S(=O)(Cc1ccccc1)Nc1ccc(-c2ccc3nc(N[C@H]4CCCNC4)ncc3c2)cc1F [Compound 1010, (S)—N-(2-Fluoro-4-(2-(piperidin-3-ylamino)quinazolin-6-yl)phenyl)-1-phenylmethanesulfonamide]"
8,79,"O=S(=O)(Cc1ccccc1)Nc1ccc(F)c(-c2ccc3nc(N[C@H]4CCCNC4)ncc3c2)c1 [Compound 1005, (S)—N-(4-Fluoro-3-(2-(piperidin-3-ylamino)quinazolin-6-yl)phenyl)-1-phenylmethanesulfonamide]"
9,30,"O=S(=O)(Cc1ccccc1)Nc1ccc(Cl)c(-c2ccc3nc(N[C@H]4CCCNC4)ncc3c2)c1F [Compound 1008, (S)—N-(4-Chloro-2-fluoro-3-(2-(piperidin-3-ylamino)quinazolin-6-yl)phenyl)-1-phenylmethanesulfonamide]"
10,100,"O=S(=O)(Cc1ccccc1)Nc1cccc(-c2ccc3nc(N[C@H]4CCCNC4)ncc3c2)c1F [Compound 1006, (S)—N-(2-Fluoro-3-(2-(piperidin-3-ylamino)quinazolin-6-yl)phenyl)-1-phenylmethanesulfonamide]"
